# According to patent US20260318831A1 (University of Cincinnati, priority 2023, published 2026):
# How the values were obtained:
# [1] = Photostability under irradiation in neutral and acidic solutions; format: physicochemical; conditions: 300 s irradiation
# Source text: (§1) Next, the effect of potential biochemical species on the fluorescence intensity of PyQPMe in both pH 3.0 and 8.2 buffer solutions was investigated. […] Fluorescence spectra of PyQPMe in various solvents with different polarities were also obtained. […] Furthermore, the photostability of PyQPMe was investigated under different pH conditions. […] Taken together, the above photophysical results identify that PyQPMe is a pH-sensitive probe, well suited for studying endolysosome dynamics via high-resolution imaging techniques.
# [2] = Effect of potential biochemical species on fluorescence intensity; format: physicochemical; conditions: pH 3.0 or 8.2; cations, anions, H2O2, Cys, Hcy, GSH
# Source text: as §1
# [3] = Fluorescence emission of PyQPMe in buffer solutions with different pH; format: physicochemical
# Source text: (§2) In some aspects, the fluorescence of the probe changes as the pH of an endolysosome changes, such as between a pH range of about 8.0 to about 2.0. With the designed probe PyQPMe in hand, its UV-visible absorption was screened in aqueous buffers with a pH range of 8.0 to 4.0. […] Simultaneously, a new absorption maximum at 447 nm (ε=27,264 M^−1 cm^−1) rises with its tail exceeding 600 nm in pH 4.0 buffer solution. […] In addition, the fluorescence intensities of PyQPMe used for different imaging channels of the microscope were compared, where the wavelengths of 500 nm and 645 nm represent the green and red channels, respectively. When the buffer solution is much more acidic, the fluorescence intensity ratio of I645 nm/I500 nm is higher than 1 (FIG. 2C), indicating red color dominates the fluorescence of PyQPMe. Conversely, with increasing the pH value, green fluorescence light is becoming the predominant color for imaging.
# as §1
# (§3) Phosphate buffer solution. A series of standard pH buffer solutions were prepared by mixing 0.2 M Na2HPO4·7H2O, 0.2 M KH2PO4, and 0.2 M H3PO4 with varied volume ratios, and the pH values were measured by using a Mettler Toledo pH-meter.
# (§4) Absorption and emission measurements. 3.0 mL phosphate buffer solution and 6.44 μL probe stock solution (4.66 mM) were mixed well, and an appropriate portion of the solution was transferred to a quartz cell with 1 cm optical length to collect the absorption spectra on an Agilent Cary 453 spectrophotometer. The fluorescence spectra were recorded on a HORIBA Fluorolog QM spectrofluorometer.
# Fluorescence reversibility of PyQPMe. The pH of a PyQPMe solution between pH 3.0 and pH 8.5 was adjusted back and forth by adding 2.0 M KOH or 3.0 M HCl, which was monitored by a Mettler Toledo pH meter.
# [4] = tested on: HeLa cells; experiment: Confocal imaging of PyQPMe uptake by endocytosis; format: cell-based
# Procedure: In some aspects, the probes of the present disclosure can be administered to living cells, either in vitro or in vivo. To take advantage of the absorption and emission spectra of PyQPMe, this probe was administered in high-resolution microscopy for living cells. The toxicity of PyQPMe was examined at first before characterizing its imaging properties. Cell Counting Kit-8 (CCK-8) was used to investigate the viability of HeLa cells stained with PyQPMe. […] Next, PyQPMe was characterized by Leica Stellaris Confocal Microscope in the LIGHTNING module for high-resolution imaging. […] The signal tended to be endolysosomes because endolysosomes have a low pH range from 4.7 to 6.3. […] Since low temperatures can inhibit endocytosis, experiments at a lower temperature were performed.
# Leica Stellaris 8 Confocal imaging. High-resolution images were acquired on a commercial Leica Stellaris 8 Confocal Microscope under LIGHTNING mode. Laser powers were set at 10% intensity for 405 nm and 640 nm channels. The objective was 63×/1.4. High-resolution images were captured from the randomly selected field of view and analyzed with Leica LAS X and ImageJ software. All the images were exported on the Auto scale of the Leica LAS X software. Cells were seeded on glassed-bottomed cell dishes (MatTek) for 24 hours. Cells stained with PyQPMe (20 nM, 10 min) were treated with Wortmannin (1 μM, 24 h), CCCP ([…], 24 h), rapamycin (0.5 μM, 24 h), chloroquine (25 μM, 30 min), and NH4Cl (50 mM, 30 min). All PCC values were analyzed in the CellProfiler.
# [5] = UV-visible absorption of PyQPMe in aqueous buffers pH 4.0-8.0; format: physicochemical
# Source text: as §2, §3, §4
# [6] = n-octanol/water partition coefficient by shake-flask ultraviolet spectrophotometry; format: physicochemical; conditions: room temperature, read-out: n-octanol/water partition coefficient (Log P)
# Procedure: The measurements of hydrophilicity. Hydrophilicity was determined by a shake-flask ultraviolet spectrophotometry method to measure the n-octanol/water partition coefficients (Log P). First, 25 mL of n-octanol and 25 mL of water were mixed at room temperature. After 24 h, the standard solutions of the sample (10 μM) were prepared by using the preceding saturated n-octanol phase and water phase solution, respectively. Later, the test solutions were prepared by mixing 10 ml of standard solution in n-octanol and 10 ml of standard solution in water. After shaking, the mixture of test solution was centrifuged for 5 min. The n-octanol phase layer was separated from the water phase layer and the absorbance of the two layers was measured by Agilent Cary 8453 spectrophotometer. Based on the Beer-Lambert law, the concentrations of the sample in the n-octanol phase (Co) and the water phase (Cw) were calculated. Finally, the n-octanol/water partition coefficients (Log P) were further calculated by using the following equation: […]
compound,measurement,setting,value
"CN1CCN(c2ccc(/C=C/c3ccc4cc(-c5ccncc5)ccc4[n+]3C)cc2)CC1 [PyQPMe, (E)-1-methyl-2-(4-(4-methylpiperazin-1-yl)styryl)-6-(pyridin-4-yl)quinolin-1-ium]",photostability: change of fluorescence intensity,[1],negligible change
same,effect of interfering substances on emission intensity,[2],none of these interfering substances could quench the emission intensity
same,maximum emission peak,"[3]; 405 nm excitation, neutral solution",510 nm
same,new emission peak,"[3]; 405 nm excitation, pH decreased from 8.0 to 4.0",650 nm
same,Stokes shift,[3]; acid solution,greater than 200 nm
same,reversibility of emission spectra,[3]; between pH 8.5 and pH 3.0,excellent reversibility
same,cut-off pH for the red to green fluorescence intensity ratio,[3]; from FIG. 2C,5-6
same,fluorescence intensity ratio I645 nm/I500 nm,[3]; much more acidic buffer solution,higher than 1
same,quantum yield,[3]; pH 4.0 buffer solution,0.23%
same,fluorescence over pH window,[3]; pH 8.0 to 4.0,remains fluorescent within the entire pH window
same,red shift of emission,[3]; pH decreased from 8.0 to 4.0,140 nm
same,emission intensity ratio I510 nm/I650 nm against pH,[3]; pH titration curve,decent linear relationship
same,effect of solvent polarity on fluorescence,[3]; various solvents with different polarities,polarity has no effect on the fluorescence
same,fluorescence signal inside HeLa cells at high concentration,[4]; 2 μM PyQPMe,same fluorescence signal inside HeLa cells could be observed
same,endolysosomes detected at low temperature,[4]; 4° C. vs 37° C.,Fewer endolysosomes were detected
same,fluorescence in HeLa cells,"[4]; 405 nm excitation, 10 min incubation",punctate fluorescence signals in the cytoplasm
same,pKa,"[5]; aqueous buffers, from absorption at 394 and 447 nm, pH 8.0 to 4.0, read-out: apparent pKa value",~5
same,absorption maximum,[5]; neutral condition,394 nm
same,ε at absorption maximum 394 nm,[5]; neutral condition,"34,147 M^−1cm^−1"
same,new absorption maximum,[5]; pH 4.0 buffer solution,447 nm
same,ε at absorption maximum 447 nm,[5]; pH 4.0 buffer solution,"27,264 M^−1 cm^−1"
same,logP at 10 µM,[6],~-0.65
